Entries after “also recorded” stand apart in the source; their conditions may differ.
Tested on: adolescents with Fontan physiology
Experiment: FUEL trial: peripheral arterial tonometry (EndoPAT), log-transformed reactive hyperemia index (lnRHI)
Type: in vivo, human
Text: Pulse amplitude tonometry (PAT), a FDA-approved method for assessing vascular function, is increasingly being used as an alternative measure of endothelium-dependent dilation in response to reactive hyperemia and flow-mediated dilation (FMD). The PAT device records digital pulse wave amplitude (PWA) using fingertip plethysmography. PWA can be measured continuously during three phases: a quiet baseline period, 5-min forearm occlusion, and reactive hyperemia following cuff release. Unlike FMD, PAT testing is not dependent upon a highly skilled technician and post-test analysis is largely automated. […]
The primary outcome was the change in oxygen consumption at peak exercise (max or peak VO2) from baseline to the 26-week visit. […] Safety was monitored through adverse event reports, which were collected according to a pre-specified protocol of study coordinator outreach, and through ad hoc patient and family communication with members of the study team at each site.
Baseline clinical testing completed before drug initiation included a blood draw to measure brain-type natriuretic peptide (BNP) level, a cardiopulmonary exercise test (CPET) using a standardized cycle ergometer ramp protocol, a standardized echocardiogram, and an assessment of peripheral vascular function using peripheral arterial tonometry (PAT) measured by finger cuff (EndoPAT; Itamar Medical, Israel). […]

Compound: CCCOc1ccc(S(=O)(=O)NCCC2CCCN2C)cc1-c1nc2c(CCC)nn(C)c2c(=O)[nH]1 (stereo not shown) [Udenafil, udenafil]
- Change in lnRHI (PAT outcome), udenafil vs placebo: no difference; also recorded: did not reveal a benefit
